# Experimental data taken from EP4574811A1, “CRYSTALLINE FORMS OF ELACESTRANT DIHYDROCHLORIDE” (SANDOZ AG, priority 2023, dated 2025).
# Structures can show the parent of a compound that is named as a salt.
# Assay: Dissolution testing (aqueous solubility in water at 24°C)
# Type: physicochemical
# Conditions: dihydrochloride; for Aqueous solubility (concentration of clear solution): in water at 24 °C; for stability of the supersaturated solution: 51.9 mg/ml solution in water at 24 °C
# Procedure: Aqueous solubility was determined dissolution experiments of Elacestrant dihydrochloride of the present invention in water at 24°C.
Structure (SMILES),Aqueous solubility (concentration of clear solution),Aqueous solubility (concentration of clear solution) (listed as form A),stability of the supersaturated solution,stability of the supersaturated solution (listed as form B)
"CCNCCc1ccc(CN(CC)c2cc(OC)ccc2[C@@H]2CCc3cc(O)ccc3C2)cc1 [Form 1, (6R)-6-(2-(ethyl((4-(2-(ethylamino)ethyl)phenyl)-methylamino)-4-methoxyphenyl)-5,6,7,8-Tetrahydronaphthalen-2-oldihydrochloride, reference compound]","less than 9,2 mg/ml",,,
"CCNCCc1ccc(CN(CC)c2cc(OC)ccc2[C@@H]2CCc3cc(O)ccc3C2)cc1 [Form A, (6R)-6-(2-(ethyl((4-(2-(ethylamino)ethyl)phenyl)-methylamino)-4-methoxyphenyl)-5,6,7,8-Tetrahydronaphthalen-2-oldihydrochloride]","34,5 mg/ml",about 34.5 mg/ml,,
"CCNCCc1ccc(CN(CC)c2cc(OC)ccc2[C@@H]2CCc3cc(O)ccc3C2)cc1 [Form B, (6R)-6-(2-(ethyl((4-(2-(ethylamino)ethyl)phenyl)-methylamino)-4-methoxyphenyl)-5,6,7,8-Tetrahydronaphthalen-2-oldihydrochloride]",51.9 mg/mL,,instable,precipitation of Elacestrant dihydrochloride was occurred
